# Results: patent US6783541B2, “Methods for inhibiting or suppressing stenosis of arteriovenous access fistulas and grafts” (Miravant Medical Technologies, Inc., priority 2001, dated 2004)
# Experiments:
# [1] = tested on: stenosis in a canine model of prosthetic AV access graft; assay: PDT in a canine model of prosthetic AV access graft; assay type: in vivo, female mongrel dogs
# Description: The work described below was undertaken to evaluate the effects of application of an embodiment of the method of the present invention on the suppression of stenosis in a canine model of prosthetic AV access graft.
# Initial studies using light-treatment without MV6401 confirmed no effect on the stenosis. Bilateral femoral PTFE AV access grafts were implanted in four female mongrel dogs. MV6401 (2 mg/kg, IV) was given one hour prior to the operation, and PDT was administered using an endolumenal non-thermal balloon catheter light source immediately after AV access graft placement. The contralateral side received a sham balloon treatment without light activation. The animals were sacrificed four weeks after the treatment, at which time the grafts were harvested, sectioned and examined by histology. Venous anastomotic sites were graded by an individual blinded to the treatment parameters and graded on a categorical scale (0-5) of lesion progression. Thickness of the stenotic lesion was determined using computer morphometry.
# [2] = Preliminary uptake studies by HPLC and fluorescence microscopy
compound,measurement,setting,value
C=Cc1c(C)c2[n]3c1=CC1=NC(=Cc4c(C)c5c([n]4[In]3[Cl])C(=C3N=C(C=2)[C@@H](C)[C@@H]3CCC(=O)OC)CC5=O)C(CC)=C1C [MV6401],graft fibrosis grade at venous anastomotic site (categorical scale 0-5),"[1]; MV6401 2 mg/kg IV 1 h before operation, endolumenal balloon light, 4 weeks after treatment, sham side without light 2.25±0.08, P=0.02",1.13±0.15
same,thickness of the stenotic lesions at the venous anastomosis,"[1]; MV6401 2 mg/kg IV plus light, 4 weeks after PDT, computer morphometry, sham side without light 1.51±0.11 mm, P=0.006",0.49±0.06 mm
same,long term detrimental effects,[1]; PDT dose sufficient to substantially deplete cell population in vessel wall,no detrimental long term effects noted
same,acellularity in the vessel wall,[1]; PDT dose used (MV6401 2 mg/kg IV plus light),substantial acellularity in the vessel wall
same,AV access graft patency,[1]; four weeks after treatment,patent and fully functioning
same,incorporation of drug into tissue,[2],incorporation into stenotic lesions and surrounding vessel wall
